Assay results from patent US10730886B2, “Compound having effect of inhibiting platelet aggregation and salt thereof, and composition for preventing or treating thrombotic diseases, containing same” (SHIN POONG PHARMACEUTICAL CO., LTD., priority 2015, dated 2020).
Where two headings read alike, the source gives them in different places.

Key:
[1] = tested on: human liver cells (HepG2); assay: Cytotoxicity in human liver cells HepG2 (WST-1); format: cell-based; conditions: HepG2, 250 μM, 18 hours
Procedure: 5-3. Evaluation of Cytotoxicity of Candidate Substances Using Human Liver Cells
Experiments were conducted to evaluate cytotoxicity in human liver cells (HepG2). HepG2 cells, which are human liver carcinoma cell lines, were cultured in DMEM (Dulbecco's minimum essential medium) supplemented with 10% FBS (fetal bovine serum) and 1% Penicillin/Streptomycin at 37° C. and 5% CO2. The cells were cultured in a 48 well plate at 4×10^4 cells/well for 24 hours and then used in the experiments. The HepG2 cells were treated with the candidate substances (250 μM) for 18 hours, and then the medium was removed and WST-1 was added, followed by shading for 3 hours for reaction. After 3 hours, the supernatant was taken and absorbance was measured at 450 nm. Cell viability was calculated by comparing the absorbance measured after adding WST-1 to HepG2 cells not treated with the candidate substances. Acetaminophen (40 mM) was used as a control.

[2] = tested on: carotid artery shear stress model; assay: Carotid artery shear stress model, amount of thrombus; format: in vivo, Sprague-Dawley rats; conditions: rat; for Amount of thrombus (mg, Mean ± SEM): 25 mg/kg oral, twice a day for 3 days after operation; for shear stress-induced thrombogenesis compared with the control group: oral
Procedure: Vehicle (0.5% methylcellulose), clopidogrel (8 mg/kg), aspirin (50 mg/kg) or a candidate substance was orally administered to male Sprague-Dawley rats (250 to 300 g). 2 hours after administration, the rats were anesthetized by ketamine/rompun (ketamine/xylazine) cocktail 0.1 ml/100 g. Except for the normal control group, the right cervical skin of the experimental animals was incised to expose the common carotid artery. A surgical tube with a length of 1 mm and an inside diameter of 0.58 mm was inserted into the exposed carotid artery and tied with a single thread. The exposed site and the operation site were treated with an anti-adhesion agent, and then sutured for the animals to recover. After the surgery, vehicle, clopidogrel, aspirin or a candidate substance was orally administered to the rats twice a day for 3 days. On the fourth day, 2 hours after the final administration, urethane (100 mg/300 μl/100 g) was administered intraperitoneally to the rats to induce anesthesia, and the operation site was opened to separate a total of 1 cm of the blood vessel, 5 mm above and 5 mm below the surgical tube. The separated blood vessel was perfused with 0.2 ml of 0.9% saline at 0.3 ml/min to remove the remaining blood, and then maintained in 1 ml of protein lysis buffer (NaOH 2 g, Na2CO3 0.1 g in 500 ml D.W). After collected, the blood vessel thrombus was double-boiled in boiling water together with the protein lysis buffer. 200 μl of the reaction solution (10 ml bicinchoninic acid solution+200 μl 4% aqueous solution of copper sulfate) was added to 10 μl of the heated thrombus, and the mixture was reacted at 37° C. for 30 minutes and quantified with an ELISA reader (562 nm).

[3] = tested on: Sprague-Dawley rats; assay: Bleeding side effect (tail bleeding time) after single oral administration; format: in vivo; conditions: rat, tail cut 1 hour after administration
Procedure: Male Sprague-Dawley rats (250 to 300 g) were fasted overnight and then were orally administered with the candidate substances at each concentration. After 1 hour, the rats were anesthetized by intraperitoneal injection of urethane (1.25 g/kg). The 3 mm portion of the tail tip of the rats was cut and carefully wiped every 30 seconds. Bleeding time was measured in […] until no more blood was drawn, and when the bleeding lasted longer than 30 minutes, the bleeding time was recorded as 30 minutes.

[4] = tested on: Human Platelet Rich Plasma (PRP); assay: Shear stress-induced platelet aggregation inhibition in human platelet rich plasma (PRP), cone-plate viscometer; format: cell-based; conditions: for inhibition at 25 µM: Homo sapiens, Platelet
Procedure: 1-1. Measurement of Platelet Aggregation Inhibitory Effect Using Human Platelet Rich Plasma (PRP)
Blood was collected from the veins of healthy male volunteers who had not taken any medication for more than 2 weeks. All related studies were conducted under the approval of the Seoul National University Institutional Review Board (IRB No. 1305/001-016). During the whole process of study the use of glass containers or glass pipettes was avoided, and the experiments were performed at room temperature. To separate platelet rich plasma (PRP), the blood was collected with 3.2% sodium citrate as an anticoagulant. The whole blood was centrifuged at 150 g for 15 minutes to obtain the supernatant (PRP), and the residue was centrifuged at 2,000 g for 20 minutes to obtain platelet poor plasma (PPP). The number of platelets of the PRP thus obtained was counted with an optical microscope using a hemacytometer. PRP was diluted with PPP so as to include 3×10^8 platelets per 1 ml, and then used in the experiments. PRP was put on a cone-plate viscometer (RotoVisco 1, Thermo Fischer Scientific, USA), and shear stress was applied to the PRP at 37° C. for 3 minutes at a shear rate of 10,800 s^−1. In order to evaluate candidate substances, prior to the induction of platelet aggregation, 598.8 μl of PRP was treated with 1.2 μl of 25 μM candidate substance and incubated at 37° C. for 3 minutes using a thermomixer. After applying the shear stress, 20 μl of PRP was fixed in 280 μl of a suspension buffer containing 0.5% glutaraldehyde (134 mM NaCl, 2.9 mM KCl, 1.0 mM MgCl2.6H2O, 10.0 mM HEPES, 5.0 mM dextrose, 12.0 mM NaHCO3, 0.34 mM Na2HPO4, 0.3% BSA, pH 7.4). Then, the number of single platelets in the suspension was counted using a hemacytometer. The degree of inhibition by the candidate substance was calculated according to the following formula (1). The degree of inhibition was determined by the method described below. No shear stress-applied group served as a control, and only shear stress-applied group served as positive control. Degree of inhibition (%)=[(1−A/B)×100]/[(1−A/C)×100] Formula 1
A: Number of single platelets in the shear stress-applied sample after treatment with candidate substance
B: Number of single platelets in the control group with no shear stress applied
C: Number of single platelets in the positive control group with only shear stress applied

[5] = 0.05 h, human PRP, 25 μM, shear rate 10,800 s^-1, 3 min, read-out: Degree of inhibition (%, Mean ± SEM)
[6] = Table 1 summary bins, concentration and matrix not given, read-out: Inhibitory effect of shear stress-induced platelet aggregation
[7] = human PRP, 25 μM, shear rate 10,800 s^-1, 3 min

SMILES	Cell vaibility (%) [1]	Amount of thrombus (mg, Mean ± SEM) [2]	shear stress-induced thrombogenesis compared with the control group [2]	Bleeding time ([3]; 25 μM (so in the source))	Bleeding time ([3]; 100 μM (so in the source))	inhibition at 25 µM [4, 5]	inhibition at 25 µM [4, 6]	Degree of inhibition (%, Mean ± SEM) [4, 7]
O=C(c1ccc(O)c(O)c1)N1CCc2sccc2C1 [Example 1, (6,7-Dihydrothieno[3,2-c]pyridin-5(4H)-yl)(3,4-dihydroxyphenyl)methanone]	91.7 ± 2.0%	0.065 ± 0.005 mg	significantly, remarkably inhibited	6.0 ± 0.9 min	6.5 ± 0.9 min	20 to 30%	20 to 30%	23 ± 2%
COc1cc(C(=O)N2CCc3sccc3C2)ccc1O [Example 12, (6,7-Dihydrothieno[3,2-c]pyridin-5(4H)-yl)(4-hydroxy-3-methoxyphenyl)methanone]	89.0 ± 2.3%	0.069 ± 0.007 mg	significantly, remarkably inhibited	6.3 ± 0.6 min	6.5 ± 0.3 min	20 to 30%	20 to 30%	25 ± 6%
CCc1occc(=O)c1OC(=O)c1ccc(O)c(OC)c1 [Example 13, 2-Ethyl-4-oxo-4H-pyran-3-yl 4-hydroxy-3-methoxybenzoate]	98.3 ± 5.5%	0.064 ± 0.006 mg	significantly, remarkably inhibited	6.5 ± 0.6 min	7.2 ± 0.3 min	20 to 30%	20 to 30%	26 ± 6%
COc1cc(C(=O)Oc2c(C)occc2=O)ccc1O [Example 14, 2-Methyl-4-oxo-4H-pyran-3-yl 4-hydroxy-3-methoxybenzoate]	87.3 ± 2.7%	0.066 ± 0.006 mg	significantly, remarkably inhibited	6.7 ± 0.9 min	6.3 ± 0.6 min	≥ 30%	≥ 30%	
COc1ccc(NC(=O)c2ccc(O)c(OC)c2)c([N+](=O)[O-])c1 [Example 15, 4-Hydroxy-3-methoxy-N-(4-methoxy-2-nitrophenyl)benzamide]	89.7 ± 2.3%	0.070 ± 0.006 mg	significantly, remarkably inhibited	7.3 ± 0.7 min	6.2 ± 0.6 min	20 to 30%	20 to 30%	24 ± 8%
O=C(c1cc(O)ccc1O)N1CCc2sccc2C1 [Example 20, (6,7-Dihydrothieno[3,2-c]pyridin-5(4H)-yl)(2,5-dihydroxyphenyl)methanone]	87.7 ± 2.6%	0.068 ± 0.005 mg	significantly, remarkably inhibited	6.7 ± 0.6 min	7.7 ± 0.4 min	≥ 30%	≥ 30%	
O=C(c1cc(O)ccc1O)N1CCC(c2noc3ccc(F)cc23)CC1 [Example 23, (2,5-Dihydroxyphenyl)(4-(5-fluorobenzo[d]isoxazol-3-yl)piperidin-1-yl)methanone]	82.7 ± 5.5%	0.071 ± 0.006 mg	significantly, remarkably inhibited			20 to 30%	20 to 30%	28 ± 3%
